Results on one compound are retold here after paper PMC9072125 (RSC Advances, 2019).

The experiment has as its system LfDAPDH. The following applies: 200 mM NH4Cl, 0.5 mM NADPH, 50 mM Na2CO3/NaHCO3 pH 9.0, 30 °C; reductive amination.

Molecules are shown by their SMILES.

With `O=C(O)C(=O)Cc1ccccc1` [PPA], the Km was 7.61 ± 0.14 mM.

By Km is commonly meant the substrate concentration at which the rate is half of its maximum.
